Test results taken from US9255132B2, “Angiopoietin derived peptides” (Compugen Ltd., priority 2008, dated 2016).
Residues, ends and D or L forms follow the SMILES beside them.

Columns and labels:
recombinant human Ang1 = biological target: T1, recombinant human Ang1 (Homo sapiens, UniProt Q15389); assay: BIACORE (SPR) binding of peptides to immobilized recombinant Ang1; conditions: CM5 chip, 10-50 μM peptide
T1 construct: purchased R&D Systems 923-AN-025/CF
T1 sequence (Q15389 16-498): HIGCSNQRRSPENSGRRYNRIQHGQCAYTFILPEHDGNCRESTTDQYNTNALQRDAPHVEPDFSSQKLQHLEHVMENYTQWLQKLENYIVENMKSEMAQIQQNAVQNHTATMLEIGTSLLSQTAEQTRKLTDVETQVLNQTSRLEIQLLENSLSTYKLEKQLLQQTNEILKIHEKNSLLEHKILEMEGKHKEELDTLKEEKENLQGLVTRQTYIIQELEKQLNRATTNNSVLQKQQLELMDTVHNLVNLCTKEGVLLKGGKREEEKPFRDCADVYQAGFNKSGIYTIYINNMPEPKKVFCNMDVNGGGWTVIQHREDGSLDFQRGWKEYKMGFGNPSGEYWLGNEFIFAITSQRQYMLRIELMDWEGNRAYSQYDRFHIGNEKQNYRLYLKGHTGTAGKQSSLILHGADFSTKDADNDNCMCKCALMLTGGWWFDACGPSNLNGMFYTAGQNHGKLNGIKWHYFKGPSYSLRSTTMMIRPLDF
Description: (§1) The capability of CGEN-H2 [SEQ ID NO: 1], CGEN-H3 [SEQ ID NO: 2], CGEN-A8 [SEQ ID NO: 3], CGEN-H7 [SEQ ID NO: 4], CGEN-G4 [SEQ ID NO: 5], CGEN-G6 [SEQ ID NO: 6], CGEN-F9 [SEQ ID NO: 7], CGEN-F12 [SEQ ID NO: 8], CGEN-C6-30 [SEQ ID NO: 9], CGEN-All [SEQ ID NO: 10], and CGEN-G2 [SEQ ID NO: 11] to specifically bind to recombinant Ang1, Ang2, and Ang4 was investigated using the BIACORE technology, measuring protein-protein interaction and binding affinity (Wendler et al 2005, Anal Bioanal Chem, 381: 1056-1064). The technology is based on surface plasmon resonance (SPR), an optical phenomenon that enables detection of unlabeled interactants in real time. The SPR-based biosensors can be used in determination of active concentration, screening and characterization in terms of both affinity and kinetics.
(§2) Peptide-protein binding was analyzed using surface plasmon resonance. Analysis of the to interaction between CGEN-H2 [SEQ ID NO: 1], CGEN-H3 [SEQ ID NO: 2], CGEN-A8 [SEQ ID NO: 3], CGEN-H7 [SEQ ID NO: 4], CGEN-G4 [SEQ ID NO: 5], CGEN-G6 [SEQ ID NO: 6], CGEN-F9 [SEQ ID NO: 7], CGEN-F12 [SEQ ID NO: 8], CGEN-C6 [SEQ ID NO: 9], CGEN-A11 [SEQ ID NO: 10], and CGEN-G2 [SEQ ID NO: 11] peptides and recombinant human Ang1 carrier-free (R&D Systems, Cat#923-AN-025/CF, Lot#FHW1507031), human Ang2 carrier-free (R&D Systems, Cat#623-AN-025/CF, Lot#BNO0457121), and human Ang4 carrier-free (R&D Systems, Cat#964-AN-025/CF, Lot#ELM025121) was conducted using the BIAcore biosensor (Pharmacia Biosensor, Uppsala, Sweden). The recombinant Ang1, Ang2, and Ang4 were immobilized directly to a CM5 sensor chip. Solutions containing 10-50 μM of CGEN-H2 [SEQ ID NO: 1], CGEN-H3 [SEQ ID NO: 2], CGEN-A8 [SEQ ID NO: 3], CGEN-H7 [SEQ ID NO: 4], CGEN-G4 [SEQ ID NO: 5], CGEN-G6 [SEQ ID NO: 6], CGEN-F9 [SEQ ID NO: 7], CGEN-F12 [SEQ ID NO: 8], CGEN-C6 [SEQ ID NO: 9], CGEN-A11 [SEQ ID NO: 10], and CGEN-G2 [SEQ ID NO: 11] peptides were injected into the sample chamber of the BIACORE device at a rate of […] and the interaction was monitored using surface plasmon resonance.
(§3) Solutions containing different concentrations of CGEN-G6 [SEQ ID NO: 6], CGEN-F9 [SEQ ID NO: 7], CGEN-F12 [SEQ ID NO: 8], CGEN-A11 [SEQ ID NO: 10], and CGEN-G2 [SEQ ID NO: 11] peptides (as indicated in Table 2) were injected into the sample chamber of the BIACORE device at a rate of […] and the interaction was monitored using surface plasmon resonance. As a background, the solutions were also injected onto an empty flow cell with no immobilized ligand and the in binding levels achieved were subtracted. Data was analyzed using BIAevaluation software. The affinity constant of the interaction between CGEN-G6 [SEQ ID NO: 6], CGEN-F9 [SEQ ID NO: 7], CGEN-F12 [SEQ ID NO: 8], CGEN-C6 [SEQ ID NO: 9], CGEN-A11 [SEQ ID NO: 10], and CGEN-G2 [SEQ ID NO: 11] and Ang1, Ang2, or Ang4 was determined by direct kinetic analysis. The 1:1 Langmuir binding model was used to fit kinetic data.
(§4) Table 2 summarizes results of analysis of CGEN-G6 [SEQ ID NO: 6], CGEN-F9 [SEQ ID NO: 7], CGEN-F12 [SEQ ID NO: 8], CGEN-A11 [SEQ ID NO: 10], and CGEN-G2 [SEQ ID NO: 11] interaction with Ang1, Ang2, or Ang4. Kinetic measurements were done at the indicated concentration range, and they are presented as KD (M). CGEN-F12 [SEQ ID NO: 8] bound to Ang1 and Ang4 with high affinity. The specificity of this binding is not clear.

human Ang2 = biological target: T2, human Ang2 (Homo sapiens, UniProt O15123); assay: BIACORE (SPR) binding of peptides to immobilized recombinant Ang2; conditions: CM5 chip, 10-50 μM peptide
T2 construct: purchased R&D Systems 623-AN-025/CF
T2 sequence (O15123 19-496): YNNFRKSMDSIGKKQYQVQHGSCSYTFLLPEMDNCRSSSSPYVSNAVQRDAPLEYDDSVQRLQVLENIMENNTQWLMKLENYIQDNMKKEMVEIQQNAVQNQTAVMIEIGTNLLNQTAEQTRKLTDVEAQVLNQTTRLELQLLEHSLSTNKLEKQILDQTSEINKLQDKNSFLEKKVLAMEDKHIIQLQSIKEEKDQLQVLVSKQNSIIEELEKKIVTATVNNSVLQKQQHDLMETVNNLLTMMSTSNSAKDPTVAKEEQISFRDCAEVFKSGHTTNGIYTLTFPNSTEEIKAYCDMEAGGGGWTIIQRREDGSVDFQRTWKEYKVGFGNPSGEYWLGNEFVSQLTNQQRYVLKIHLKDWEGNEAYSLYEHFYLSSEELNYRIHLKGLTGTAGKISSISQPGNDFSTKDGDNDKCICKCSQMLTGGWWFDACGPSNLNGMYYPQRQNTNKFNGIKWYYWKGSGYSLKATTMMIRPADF
Description: as §1, §2, §3, §4

binding to immobilized Ang1 (in words) (recombinant human Ang1) | binding to immobilized Ang2 (in words) (human Ang2) | Compound
capable of binding | capable of binding | CSCC[C@H](NC(=O)[C@H](CC(C)C)NC(=O)[C@H](CC(=O)O)NC(C)=O)C(=O)N[C@@H](CCC(=O)O)C(=O)N[C@H](C(=O)N[C@H](C(=O)N[C@@H](CC(N)=O)C(=O)N[C@@H](CC(N)=O)C(=O)N[C@@H](CC(C)C)C(=O)N[C@@H](CC(C)C)C(=O)N[C@H](C(=O)N[C@@H](CCSC)C(=O)N[C@@H](CCSC)C(=O)N[C@@H](CO)C(=O)N[C@H](C(=O)N[C@@H](CO)C(=O)N[C@@H](CC(N)=O)C(=O)N[C@@H](CO)C(=O)N[C@@H](C)C(=O)N[C@@H](CCCCN)C(=O)N[C@@H](CC(=O)O)C(N)=O)[C@@H](C)O)[C@@H](C)O)C(C)C)[C@@H](C)O [CGEN-G6] (Ac-DLMETVNNLLTMMSTSNSAKD-NH2)
capable of binding | capable of binding | CC[C@H](C)[C@H](NC(=O)[C@H](C)NC(=O)[C@H](CCCNC(=N)N)NC(=O)[C@H](CCC(=O)O)NC(=O)[C@H](CC(C)C)NC(=O)[C@H](CCCCN)NC(=O)[C@H](CCCCN)NC(=O)[C@H](CC(C)C)NC(=O)[C@H](Cc1c[nH]c2ccccc12)NC(=O)[C@H](CCC(N)=O)NC(=O)[C@@H](NC(=O)[C@H](CC(N)=O)NC(=O)[C@H](CC(N)=O)NC(=O)[C@H](CCC(N)=O)NC(=O)[C@H](CC(C)C)NC(=O)[C@H](C)NC(=O)[C@H](CCC(N)=O)NC(=O)[C@H](CCC(=O)O)NC(=O)[C@H](CC(C)C)NC(=O)[C@H](CCC(N)=O)NC(=O)[C@H](CCCCN)NC(=O)[C@@H](NC(=O)[C@H](CCC(N)=O)NC(=O)[C@H](CCC(N)=O)NC(=O)[C@@H](NC(C)=O)[C@@H](C)O)C(C)C)[C@@H](C)O)C(=O)N[C@@H](CCCCN)C(=O)N[C@H](C(=O)N[C@H](C(=O)N[C@@H](CC(C)C)C(N)=O)[C@@H](C)CC)[C@@H](C)O [CGEN-G2] (Ac-TQQVKQLEQALQNNTQWLKKLERAIKTIL-NH2)
capable of binding | capable of binding | CC(=O)N[C@@H](CCC(=O)O)C(=O)N[C@H](C(=O)N[C@@H](Cc1ccccc1)C(=O)N[C@@H](CC(C)C)C(=O)N[C@@H](CO)C(=O)N[C@H](C(=O)N[C@@H](CC(N)=O)C(=O)N[C@@H](CCCCN)C(=O)N[C@@H](CC(C)C)C(=O)N[C@@H](CCC(=O)O)C(=O)N[C@@H](CC(N)=O)C(=O)N[C@@H](CCC(N)=O)C(N)=O)[C@@H](C)O)[C@@H](C)O [CGEN-A11, ETFLSTNKLENQ] (Ac-ETFLSTNKLENQ-NH2)
